# In patent publication US11078496B2, “System for F-box hormone receptor regulated protein expression in mammalian cells” (ICAHN SCHOOL OF MEDICINE AT MOUNT SINAI, priority 2016, dated 2021):
# Test system: CCE A-CHK1 clone #2 cells
# Assay: Competition assay of A-CHK1 clone #2 cells against GFP-A CCE cells
# Assay type: cell-based, mouse
# Conditions: 50 μM IAA-treated A-CHK1 cells compared to the EtOH-treated controls
# Description: FIGS. 6A-6E show CHK1 depletion under normal growth conditions in mESCs. FIG. 6A show images of cells assayed for alkaline phosphatase activity. CCE mESCs were infected with pRAIDRS GFP-A or A-CHK1 and selected in the presence of EtOH (“Con”) or auxin (“IAA”). After colonies emerged, cells were assayed for alkaline phosphatase activity. Left, low magnification scans. Right, bright-field microscope images. Scale bars, 100 μm. […] FIG. 6B are graphs showing populations doubling, following selection, of the indicated clones cultured in the presence of 0.01% EtOH (solid lines) or 50 μM IAA (dashed lines). Cells were counted and replated every 3-4 days and population doublings were calculated as Log2 (cell output/cell input). Experiment was conducted once for these clones. […] Cells were collected every 2-3 days and assayed for GFP and mCherry fluorescence by flow cytometry. The percentage of A-CHK1 cells was calculated for each time point and the values for the auxin-treated cells were normalized to those of EtOH-treated cells. An average growth rate decrease of 8% per day was calculated for auxin-treated A-CHK1 cells compared to the EtOH-treated controls. […] In FIG. 6E, the indicated clones were treated with 0.01% EtOH or 50 μM auxin (“IAA”) for 3 days and analyzed for the expression of self-renewal and differentiation markers by QRT-PCR. […]
smiles,measurement,value
"O=C(O)Cc1c[nH]c2ccccc12 [auxin, indole-3-acetic acid]",average growth rate decrease,8 % per day
